Measured values published in patent publication US20210254000A1, “PROCESS FOR PRODUCING A T CELL COMPOSITION” (Juno Therapeutics, Inc., priority 2017, published 2021).
Like-named read-outs stand apart in the source and are kept apart here.

Columns and labels:
[1] = tested on: Ribo-S6 phosphorylation; assay: Inhibition of ribosomal protein S6 phosphorylation in stimulated primary human T cells (flow cytometry); format: cell-based
Protocol: The dose effect of exemplary mTOR kinase inhibitors in primary human T cells was assessed by monitoring inhibition of ribosomal protein S6.
CD4+ and CD8+ T cells were isolated by immunoaffinity-based enrichment from leukapheresis samples from human donor subjects. Isolated CD4+ and CD8+ T cells were mixed 1:1 and stimulated with anti-CD3/anti-CD28 magnetic beads in the presence of increasing concentrations of an mTOR kinase inhibitor, PI-103, Compound 155, Compound 63, or Compound 246. The T cell cultures were incubated overnight (approximately 16 hr) at 37° C. Following incubation in the presence of PI-103, Compound 155, Compound 63, or Compound 246, T cells were assessed for intracellular S6 phosphorylation and co-stained for surface expression of CD4 or CD8, by flow cytometry.

[2] = tested on: engineered CD8+ and CD4+ T cells; assay: T cell expansion of anti-CD19 CAR-transduced CD4+ and CD8+ T cells incubated with mTOR kinase inhibitor; format: cell-based
Protocol: Separate compositions of CD4+ and CD8+ cells were isolated from human leukapheresis samples by immunoaffinity-based enrichment and cryofrozen. The CD4+ and CD8+ cells of the compositions were subsequently thawed and activated by separately culturing the cells under stimulating conditions in the presence of anti-CD3/anti-CD28 magnetic beads and recombinant IL-2, IL-7 and/or IL-15 for approximately 20 hours. Cells were then transduced with a viral vector encoding an anti-CD19 chimeric antigen receptor (CAR). After transduction, the CD4+ and CD8+ cells were separately incubated in the presence of an mTOR kinase inhibitor, either Compound 155, Compound 63, or Compound 246, at various concentrations. For controls, cells were incubated with media only, DMSO vehicle, or with 200 nM PI-103. Incubation was carried out at 37° C. for approximately 8 days post-thaw with one media change, at which point the compounds were re-added to the culture media at the same concentration.
The percent of CD8+ and CD4+ T cells at the end of the process as compared to the amount of cells seeded for culture following the transduction is shown in FIG. 2. The cutoff for selecting a tolerated dose was set at 70% of the mean values of the media and DMSO controls.

[3] = Homo sapiens, T-cell, CD8+ T cells, read-out: IC50 for inhibition of Ribo-S6 phosphorylation, CD8
[4] = Homo sapiens, CD4+ T cells, read-out: IC50 for inhibition of Ribo-S6 phosphorylation, CD4
[5] = T-cell, primary human CD4+/CD8+ T cells mixed 1:1, anti-CD3/anti-CD28 beads, approximately 16 hr, read-out: IC50 for the inhibition of S6 phosphorylation in the T cells

SMILES | IC50 [1, 3] | IC50 [1, 4] | IC50 [1, 5] | highest tolerated dose resulting in similar CD8 and CD4 T cell expansion as vehicle control ([2]; human) | highest tolerated dose resulting in similar CD8 and CD4 T cell expansion as vehicle control ([2]; cutoff 70% of mean of media and DMSO controls, approximately 8 days post-thaw)
O=c1[nH]c2ncc(-c3ccc(-c4nc[nH]n4)cc3)nc2n1CCC1CCOCC1 [Compound 155, 6-(4-(2H-1,2,4-Triazol-3-yl)phenyl)-1-(2-(tetrahydro-2H-pyran-4-yl)ethyl)-1H-imidazo [4,5-b]pyrazine-2(3H)-one] | 127 nM | 121 nM | ~100 nM | 100 nM | 
CO[C@H]1CC[C@H](N2C(=O)CNc3ncc(-c4ccc(C(C)(C)O)nc4)nc32)CC1 [Compound 246, 7-(6-(2-hydroxypropan-2-yl)pyridin-3-yl)-1-((1r,4r)-4-methoxycyclohexyl)-3,4-dihydropyrazino[2,3-b]pyrazin-2(1H)-one] | 502 nM | 475 nM | ~500 nM |  | 100 nM
